Values of other authors as cited in patent publication US20260335448A1 (priority 2022, published 2026).
Like-named read-outs stand apart in the source and are kept apart here.

Legend:
[1] = system: SARS-COV-2-infected Vero/hSLAM cells; settings: in vitro, at high concentrations
glioblastoma = settings: in vitro
leukemia = settings: in vitro
dengue virus = settings: in vitro
[2] = system: Venezuelan equine encephalitis virus
West Nile virus = settings: in vitro
breast cancer = settings: in vitro
pseudorabies virus [3] = system: pseudorabies virus
colon cancer = settings: in vitro
ovarian cancer = settings: in vitro
melanoma = settings: in vitro
gastric cancer = settings: in vitro
pseudorabies virus [4] = settings: in vivo

Substance: ivermectin
- anti-viral activity [1]: activity in vitro
- anti-tumor activity (glioblastoma): activity in vitro
- anti-tumor activity (leukemia): activity in vitro
- anti-viral activity (dengue virus): activity in vitro
- anti-viral activity [2]: activity in vitro
- anti-viral activity (West Nile virus): activity in vitro
- anti-tumor activity (breast cancer): activity in vitro
- anti-viral activity (pseudorabies virus [3]): activity in vitro
- anti-tumor activity (colon cancer): activity in vitro
- anti-tumor activity (ovarian cancer): activity in vitro
- anti-tumor activity (melanoma): activity in vitro
- anti-tumor activity (gastric cancer): activity in vitro
- anti-viral activity (pseudorabies virus [4]): activity in vitro and in vivo
